Measured values reported in patent US9770482B2, “Targeting the EGFR-SGLT1 interaction for cancer therapy” (The University of Houston System, priority 2013, dated 2017).
Entries after “also recorded” stand apart in the source; their conditions may differ. Peptide text beside a SMILES is read from it. * marks the point of attachment. Cbz = O=C(OCc1ccccc1)*

Columns and labels:
[1] = system: PC3 cells; assay: MTT cell growth assay, PC3 cells; type: cell-based; details: phlorizin 50 μM with/without Gefitinib 10 μM or Erlotinib 10 μM, 48 hs, FIG. 4C
Description: (§1) It is well known that an increase in glucose levels can activate EGFR, that SGLT1 is over-expressed in prostate cancer tissues, and that prostate cancer is resistant to EGFR inhibitors. […] In an embodiment, SGLT1 and EGFR can synergistically promote prostate cancer growth. […] In one embodiment, the growth inhibitory effects of the treatments may be determined. […]
(§2) Cell growth was determined by 3-(4,5-dimethylthiazole-2-yl)-2,5-diphenyltetrazolium Bromide (MTT) assay in 96-well plates according to the protocol provided by the manufacture. […] Absorbance was measured by a MultiSkan plate reader (Thermo Fisher Scientific, NC) at 570 nm. […] Cell viability was determined by trypan blue uptake assay. The percentage of live cells were counted in areas (n=3 for each sample) randomly selected under 10× magnificence of triplicates. […]

[2] = system: LNCaP cells; assay: MTT cell growth assay, LNCaP cells; type: cell-based; details: phlorizin 50 μM with/without Gefitinib 10 μM or Erlotinib 10 μM, 48 hs, FIG. 4D
Description: as §1, §2

[3] = system: prostate cancer Du145 cells; assay: Trypan blue uptake assay, Du145 cells; type: cell-based; details: 100 μM for 24 hours, FIG. 6
From the text: (§3) In another embodiment, a peptide can destabilize EGFR and SGLT1 proteins of cancer cells. FIG. 5A, by way of example only, illustrates an embodiment of a peptide, called ESD-01 (SEQ ID NO: 001), which can destabilize EGFR and SGLT1 proteins of cancer cells. In one embodiment, the ESD-01 peptide can be selected from the SGLT1 interacting domain of EGFR. In another embodiment, ESD-01 comprises amino acids 1049-1062 of a human EGFR protein (GenBank: AAH94761.1). In still another embodiment, the effects of ESD-01 on the stability of EGFR and SGLT1 in cultured cells (e.g, PC3, MDA-MB-231, and HCT116 cells) can be determined by Western blot analysis. […] In still another embodiment, the effects of ESD-01 on the survivability of cultured cancer cells (e.g, PC3, MDA-MB-231, and HCT116 cells) can be determined by trypan blue uptake assay.
(§4) Cell growth was determined by 3-(4,5-dimethylthiazole-2-yl)-2,5-diphenyltetrazolium Bromide (MTT) assay in 96-well plates according to the protocol provided by the manufacture. Briefly, 5000 cells suspended in 100 μL medium were seeded in each well of a 96-well plate. […] Absorbance was measured by a MultiSkan plate reader (Thermo Fisher Scientific, NC) at 570 nm. […] Cell viability was determined by trypan blue uptake assay. The percentage of live cells were counted in areas (n=3 for each sample) randomly selected under 10× magnificence of triplicates.

[4] = system: colon cancer HCT116 cells; assay: Trypan blue uptake assay, HCT116 cells; type: cell-based; details: 100 μM for 24 hours, FIG. 6
From the text: as §3, §4

[5] = system: breast cancer MDA-MB-231 cells; assay: Trypan blue uptake assay, MDA-MB-231 cells; type: cell-based; details: 100 μM for 24 hours, FIG. 6
From the text: as §3, §4

[6] = system: SGLT1; assay: Western blot of SGLT1 level in PC3 cells; type: cell-based; details: FIG. 5B
From the text: as §3
(§5) For Western blot (WB) analysis, cells were lysed with RIPA buffer (150 mM NaCl, 50 mM Tris-HCl, pH 7.4, 0.1% SDS, 1% TritonX-100, 1 mM EDTA, 1 mM PMSF, 20 μg/ml aprotinin, 20 μg/ml leupeptin, 20 μg/ml pepstatine, 1% sodium deoxycholate, 1 mM NaF, 1 mM Na3VO4, in H2O). Proteins separated by 8% SDS-PAGE were transferred to PVDF membrane followed by blocking with 5% nonfat dry milk and then incubation with primary antibodies at optimized concentrations for overnight at 4° C. […]

[7] = system: non-cancerous HEK293 cells; assay: Trypan blue uptake assay, HEK293 cells; type: cell-based; details: FIG. 6
From the text: as §3, §4

[8] = system: prostate cancer PC3 cells; assay: Trypan blue uptake assay, PC3 cells; type: cell-based; details: 100 μM for 24 hours, FIG. 6
From the text: as §3, §4

[9] = system: cancer cells; assay: Killing of cancer cells in vitro, L- versus D-amino acid peptide; type: cell-based
[10] = system: EGFR; assay: Western blot of EGFR level in PC3 cells; type: cell-based; details: FIG. 5B
From the text: as §3, §5

[11] = system: SGLT1; assay: Western blot of SGLT1 level in SGLT1 and ΔAutoPhos-EGFR co-transfected HEK293 cells; type: cell-based, human; details: FIGS. 2C-2D
From the text: In an embodiment, to determine whether proteasome is involved in loss of interaction with EGFR induced down-regulation of SGLT1, SGLT1 and ΔAutoPhos-EGFR co-transfected HEK293 cells can be treated with a proteasome inhibitor, such as but not limited to […]. For example, FIG. 2C illustrates a Western blot analysis of the effect of a proteasome inhibitor MG132 on the down-regulation of SGLT1 by ΔAutophos-EGFR. Actin may be used as a loading control. FIG. 2D, by way of example only, illustrates a densitometric quantification of bands in the Western blot of FIG. 2C. Asterisk marks indicate statistical significance between the linked representative groups from triplicate experiments.
HEK293 cells were transfected with plasmids expressing flagged SGLT1 alone or with indicated HA tagged EGFR constructs. After 24 hours of transfection, cells were washed in 1× phosphate buffered solution and lysed with RIPA buffer (50 mM Tris-HCl, pH 8.0, with 150 mM sodium chloride, 1.0% Igepal CA-630 (NP-40), 0.5% sodium deoxycholate, and 0.1% sodium dodecyl sulfate), supplemented with a protease inhibitors cocktail for 6 hours on a shaker at 4° C. The cell lysates were then centrifuged for 2 minutes at 12000× rpm. Supernatant were then incubated with sepharose protein A/G beads conjugated with anti-flag or anti-SGLT1 antibody for overnight at 4° C. […]

[12] = molecular target: T1, endogenous EGFR-SGLT1 interaction (Homo sapiens, UniProt P00533); assay: Immunoprecipitation coupled Western blot of endogenous EGFR and SGLT1 interaction in PC3 cells; type: cell-based; details: PC3 cells treated with EGF or AEE788; FIG. 3B
T1 construct: endogenous in cells; host or cells: PC3

[13] = molecular target: T2, EGFR-SGLT1 interaction (Homo sapiens, UniProt P00533); assay: Immunoprecipitation coupled Western blot of EGFR-HA and SGLT1-Flag interaction in co-transfected HEK293 cells; type: cell-based; details: WT-EGFR and SGLT1 co-transfected HEK293 cells; EGF 10 ng/ml or EGF plus AEE788 5 μM, 30-60 min; FIG. 3A
T2 construct: The full-length human EGFR was amplified with a forward primer EGFR-F; expressed in transfected cells; host or cells: HEK293

[14] = molecular target: T3, wild type EGFR, HA tagged (human, full length, C-terminal HA tag) (human, UniProt P00533 25-1210); assay: co-IP of SGLT1-Flag, Western blot for EGFR-HA, HEK293 cells treated with EGF or EGF plus AEE788
T3 construct: whole, on cells; Expressed by transient transfection in HEK293 cells; tested in RIPA lysates by co-immunoprecipitation; also called WT; WT-EGFR; not shown: C-terminal HA tag

[15] = molecular target: T4, endogenous EGFR of PC3 cells (UniProt P00533 25-1210, limits assumed); assay: co-IP of endogenous SGLT1 (anti-SGLT1), Western blot for EGFR and pEGFR, PC3 cells treated with EGF or AEE788
T4 construct: whole, on cells; Co-precipitated from PC3 lysates with endogenous SGLT1

How did the “sensitization to growth inhibitory effects of Gefitinib and Erlotinib” value [1] turn out when `O=C(CCc1ccc(O)cc1)c1c(O)cc(O)cc1O[C@@H]1O[C@H](CO)[C@@H](O)[C@H](O)[C@H]1O` [Phlorizin] was run?
Its value is “sensitizes; also recorded: significantly sensitize”.

What about the “sensitization to growth inhibitory effects of Gefitinib and Erlotinib” value [2] of the same molecule?
The value was “sensitizes; also recorded: significantly sensitize”.

With “ESD-01: synthesized peptide from the SGLT1 interacting domain of EGFR; comprises amino acids 1049-1062 of a human EGFR protein (GenBank: AAH94761.1) (LVWKQSCSSTSSTH; listed as Homo sapiens)” as the molecule, how does the survivability [3] read?
The survivability was “significantly reduces the survivability”.

And the survivability [4]?
The survivability was “significantly reduces the survivability”.

And the survivability [5]?
The survivability was “significantly reduces the survivability”.

And the SGLT1 level ([6]; 200 μM for 6 hours)?
The SGLT1 level was “significantly down-regulates”.

What about the survivability [7] of the same molecule?
Its survivability is “cannot reduce the survivability”.

And the survivability [8]?
Its survivability is “significantly reduces the survivability”.

What about the “killing cancer cells in vitro, peptide made of L-amino acids versus D-amino acids” value [9] of the same molecule?
Its value is “equally effective”.

What about the EGFR level ([10]; 200 μM for 6 hours) of the same molecule?
The EGFR level was “significantly down-regulates”.

Which results are given for `CC(C)C[C@@H](C=O)NC(=O)[C@H](CC(C)C)NC(=O)[C@H](CC(C)C)NC(=O)OCc1ccccc1` [MG132] (Cbz-Leu-Leu-Leu-aldehyde)?
inhibition of ESD-01 induced SGLT1 down-regulation ([6]; ESD-01 200 μM for 6 hours): inhibited; inhibition of down-regulation of SGLT1 [11]: can inhibit the down-regulation of SGLT1; inhibition of ESD-01 induced EGFR down-regulation ([10]; ESD-01 200 μM for 6 hours): inhibited

What does the source list for `CCN1CCN(Cc2ccc(-c3cc4c(N[C@H](C)c5ccccc5)ncnc4[nH]3)cc2)CC1` [AEE788]?
effect on endogenous EGFR-SGLT1 interaction [12]: neither EGF nor AEE788 affect the EGFR-SGLT1 interaction; effect on EGFR-SGLT1 interaction (EGFR co-immunoprecipitated with SGLT1) [13]: neither EGF nor AEE788 significantly affects the EGFR-SGLT1 interaction

B1: flag tagged human SGLT1 (sodium/glucose co-transporter 1) (other, UniProt P13866 1-664, looked up)
chain: MDSSTWSPKTTAVTRPVETHELIRNAADISIIVIYFVVVMAVGLWAMFSTNRGTVGGFFLAGRSMVWWPIGASLFASNIGSGHFVGLAGTGAASGIAIGGFEWNALVLVVVLGWLFVPIYIKAGVVTMPEYLRKRFGGQRIQVYLSLLSLLLYIFTKISADIFSGAIFINLALGLNLYLAIFLLLAITALYTITGGLAAVIYTDTLQTVIMLVGSLILTGFAFHEVGGYDAFMEKYMKAIPTIVSDGNTTFQEKCYTPRADSFHIFRDPLTGDLPWPGFIFGMSILTLWYWCTDQVIVQRCLSAKNMSHVKGGCILCGYLKLMPMFIMVMPGMISRILYTEKIACVVPSECEKYCGTKVGCTNIAYPTLVVELMPNGLRGLMLSVMLASLMSSLTSIFNSASTLFTMDIYAKVRKRASEKELMIAGRLFILVLIGISIAWVPIVQSAQSGQLFDYIQSITSYLGPPIAAVFLLAIFWKRVNEPGAFWGLILGLLIGISRMITEFAYGTGSCMEPSNCPTIICGVHYLYFAIILFAISFITIVVISLLTKPIPDVHLYRLCWSLRNSKEERIDLDAEEENIQEGPKETIEIETQVPEKKKGIFRRAYDLFCGLEQHGAPKMTEEEEKAMKMKMTDTSEKPLWRTVLNVNGIILVTVAVFCHAYFA
notes: whole, on cells; Plasmid described in Blessing et al. 2012; Expressed in HEK293 cells and immunoprecipitated with anti-flag antibody; also called SGLT1-Flag; flagged SGLT1; not shown: Flag tag
Does B1 bind [14]?
Result: binds

B2: endogenous SGLT1 of PC3 cells (other, UniProt P13866 1-664, looked up)
chain: B1 chain
notes: whole, on cells; Immunoprecipitated from PC3 lysates with anti-SGLT1 antibody
Does B2 bind [15]?
Result: binds
